Reference: patent publication US10206388B2, “Formulation component” (SYNGENTA LIMITED, priority 2011, dated 2019)

Tests used:
Type in all cases: in vivo
[1] = system: four weed species (ALOMY, AVEFA, LOLPE, SETVI); experiment: Glasshouse weed test, pinoxaden with adjuvants, mean across species; conditions: mean over two rates
Protocol: (§1) The aromatic ester Finsolv® TN (C12-C15 alkyl benzoate) was tested in a glasshouse against four weed species using the herbicide pinoxaden. An agrochemical composition was prepared containing 0.2% v/v of the adjuvant in a track sprayer and was applied at a volume of 200 liters per hectare. Pinoxaden was applied at either 7.5 or 15 grams of pesticide per hectare on each of the weed species. […] The weed species and their growth stage at spraying were Alopecurus myosuroides (ALOMY; growth stage 13), Avena fatua (AVEFA; growth stage 12); Lolium perenne (LOLPE; growth stage 13), Setaria viridis (SETVI; growth stage 14).
(§2) Each spray test was replicated three times. The efficacy of the herbicide was assessed visually and expressed as a percentage of the leaf area killed. Samples were assessed at time periods of 7, 14 and 20 days following application. The results shown in Table 12 below are mean averages over the two rates of pinoxaden, three replicates and the three assessment timings, and are compared to the efficacy of pinoxaden in the absence of an adjuvant and pinoxaden in the presence of triethylhexyl phosphate.
A second experiment was conducted to assess the efficacy of Finsolv® TN as an adjuvant for pinoxaden. This was carried out as outlined above, with the following change: samples were assessed at 14 and 20 days post application. The results shown below in Table 13 are mean averages over the two rates of pinoxaden, three replicates, the two assessment timings, and the four weed species, and are compared to the efficacy of pinoxaden in the absence of an adjuvant and pinoxaden in the presence of the common adjuvant methyl oleate.
as §1, with “An” for “The aromatic ester Finsolv® TN (C12-C15 alkyl benzoate) was tested in a glasshouse against four weed species using the herbicide pinoxaden. An”
as §2, with “17” for “12”, “Brij®96.” for “triethylhexyl phosphate.”
as §1, with “An” for “The aromatic ester Finsolv® TN (C12-C15 alkyl benzoate) was tested in a glasshouse against four weed species using the herbicide pinoxaden. An”, “hectare. The adjuvant oils were emulsified using a small amount of the surfactant Pluronic® PE 10500, which was present in the composition at a concentration of 0.02% v/v.” for “hectare.”, “13-14).” for “14).”
as §2, with “of” for “of 7,”, “and 21” for “and 20”, “Table 18” for “Table 12”, “the two” for “the three”, “of tris 2ethylhexylphosphate (TEHP).” for “of triethylhexyl phosphate.”
The aromatic esters Finsolv® TN and the aromatic ester ethoxylate Dermol 25-3B were tested in a glasshouse against four weed species using the herbicide pinoxaden. […]

[2] = system: Setaria viridis (SETVI); experiment: Glasshouse weed test, pinoxaden with adjuvants; conditions: Table 12, Example 8: pinoxaden 7.5 or 15 g/ha; adjuvant 0.2% v/v; Atlas G5000 in spray tank; mean over two rates, three replicates, 7, 14 and 20 days
Protocol: as §1, §2

[3] = system: Alopecurus myosuroides (ALOMY); experiment: Glasshouse weed test, pinoxaden with adjuvants; conditions: Table 12, Example 8: pinoxaden 7.5 or 15 g/ha; adjuvant 0.2% v/v; Atlas G5000 in spray tank; mean over two rates, three replicates, 7, 14 and 20 days
Protocol: as §1, §2

[4] = system: Lolium perenne (LOLPE); experiment: Glasshouse weed test, pinoxaden with adjuvants; conditions: Table 12, Example 8: pinoxaden 7.5 or 15 g/ha; adjuvant 0.2% v/v; Atlas G5000 in spray tank; mean over two rates, three replicates, 7, 14 and 20 days
Protocol: as §1, §2

[5] = system: Avena fatua (AVEFA); experiment: Glasshouse weed test, pinoxaden with adjuvants; conditions: Table 12, Example 8: pinoxaden 7.5 or 15 g/ha; adjuvant 0.2% v/v; Atlas G5000 in spray tank; mean over two rates, three replicates, 7, 14 and 20 days
Protocol: as §1, §2

[6] = system: four weed species (ABUTH, CHEAL, DIGSA, SETVI); experiment: Glasshouse weed test, nicosulfuron with adjuvants, mean across species; conditions: Table 27, Example 24: nicosulfuron 30 or 60 g/ha; mean over two rates, three replicates, 14 and 21 days
Protocol: The aromatic ester Finsolv® TN (C12-C15 alkyl benzoate) was tested in a glasshouse against four weed species using the herbicide nicosulfuron. An agrochemical composition was prepared containing 0.2% v/v of the adjuvant in a track sprayer, and was applied at a volume of 200 liters per hectare. Nicosulfuron was applied at either 30 or 60 grams of pesticide per hectare on each of the weed species. The weed species and their growth stage at spraying were Abutilon theophrasti (ABUTH; growth stage 13), Chenopodium album (CHEAL; growth stage 14), Digitaria sanguinalis (DIGSA; growth stage 13), and Setaria viridis (SETVI; growth stage 13).
as §2, with “test” for “test was”, “6” for “12”, “nicosulfuron,” for “pinoxaden,”, “nicosulfuron” for “pinoxaden”, “adjuvant,” for “adjuvant”, “the commercially available tank-mix adjuvant, Atplus411F®.” for “triethylhexyl phosphate.”
A second experiment was conducted to assess the efficacy of Finsolv® TN as an adjuvant in compositions of nicosulfuron. This was carried out as outlined above, with the following change: samples were assessed at 14 and 20 days post application.
The results shown in Table 7 below are mean averages over the two rates of nicosulfuron, three replicates and the two assessment timings, and are compared to the efficacy of nicosulfuron in the absence of an adjuvant, and nicosulfuron in the presence of the commercially available tank-mix adjuvant, Atplus411F®.
The aromatic esters Benzoate 1 (see Example 9), Benzoflex 354 (2,2,4-trimethyl-1,3-pentanediol dibenzoate) and Finsolv® SB (stearyl benzoate) were tested in a glasshouse against four weed species using the herbicide nicosulfuron. Nicosulfuron was applied at either 30 or 60 grams of pesticide per hectare on each of the weed species. The weed species and their growth stage at spraying were Abutilon theophrasti (ABUTH; growth stage 13), Chenopodium album (CHEAL; growth stage 14), Digitaria sanguinalis (DIGSA; growth stage 13), and Setaria viridis (SETVI; growth stage 13).
Each spray test replicated three times. The efficacy of the herbicide was assessed visually and expressed as a percentage of the leaf area killed. Samples were assessed at time periods of 14 and 20 days following application. The results shown in Table 14 below are mean averages over the two rates of nicosulfuron, three replicates and the two assessment timings, and are compared to the efficacy of nicosulfuron in the absence of an adjuvant, and nicosulfuron in the presence of the commercially available tank-mix adjuvant, Atplus411F®.
An agrochemical composition was prepared containing 0.2% v/v of the adjuvant in a track sprayer and was applied at a volume of 200 liters per hectare. The adjuvant oils were emulsified using a small amount of the surfactant Pluronic® PE 10500, which was present in the composition at a concentration of 0.02% v/v. Nicosulfuron was applied at either 30 or 60 grams of pesticide per hectare on each of the weed species. The weed species and their growth stage at spraying were Abutilon theophrasti (ABUTH; growth stage 13), Chenopodium album (CHEAL; growth stage 14-15), Digitaria sanguinalis (DIGSA; growth stage 14), and Setaria viridis (SETVI; growth stage 13-14).
Each spray test replicated three times. The efficacy of the herbicide was assessed visually and expressed as a percentage of the leaf area killed. Samples were assessed at time periods of 14 and 21 days following application. […]

SMILES: CCc1cc(C)cc(CC)c1-c1c(OC(=O)C(C)(C)C)n2n(c1=O)CCOCC2 [Pinoxaden, pinoxaden]
- Mean percentage kill, Mean across species ([1]; Table 12, Example 8: pinoxaden 7.5 or 15 g/ha, adjuvant 0.2% v/v, Atlas G5000 in spray tank, three replicates, 7, 14 and 20 days): 2.43 B %
- Mean percentage kill, Mean across species ([1]; Table 13, Example 8 second experiment: pinoxaden 7.5 or 15 g/ha, adjuvant 0.2% v/v, three replicates, 14 and 20 days, four weed species): 0.5 B %
- Mean percentage kill, Mean across species ([1]; Table 17, Example 13: pinoxaden 7.5 or 15 g/ha, adjuvant 0.2% v/v, Atlas G5000 in spray tank, three replicates, 7, 14 and 20 days): 1.8 C %
- Mean percentage kill, Mean across species ([1]; Table 18, Example 14: pinoxaden 7.5 or 15 g/ha, adjuvant 0.2% v/v emulsified with Pluronic PE 10500 0.02% v/v, three replicates, 14 and 21 days): 2.6B %
- Mean percentage kill, Mean across species ([1]; Table 22, Example 18: absence of an adjuvant, pinoxaden 7.5 or 15 g/ha, three replicates, 14 and 21 days): 3.6E %
- Mean percentage kill, Mean across species ([1]; Table 26, Example 23: pinoxaden 7.5 or 15 g/ha, adjuvant 0.2% v/v, Atlas G5000, three replicates, 14 and 21 days): 4.0C %
- Mean percentage kill, Mean across species ([1]; Table 32, Example 32: pinoxaden 7.5 or 15 g/ha, adjuvant 0.2% v/v, Atlas G5000, three replicates, 14 and 21 days): 3.6B %
- Mean percentage kill SETVI [2]: 0.8 B %
- Mean percentage kill ALOMY [3]: 1.1 B %
- Mean percentage kill LOLPE [4]: 5.0 B %
- Mean percentage kill AVEFA [5]: 2.8 B %
- Mean percentage kill, Mean across species [6]: 46.6C %
